# In PubChem BioAssay AID250 (DTP/NCI, 2004):
# Toxic doses and inconclusive results are not listed.
# Tested on: BDF1 mice, L1210 leukemia sc, survival T/C
# Assay: NCI In Vivo Anticancer Drug Screen. Data for tumor model L1210 Leukemia (subcutaneous) in B6D2F1 (BDF1) mice
# Settings: endpoint: median survival time, higher = longer survival
# Outline: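 Expressed as T/C: measurement in compound-treated, tumor-bearing mice relative to vehicle-treated control mice, based on survival or tumor size.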
# [1] = dose: 23.0 mg/kg/injection, schedule: Q01DX Z (sc), vehicle: methylcellulose (MC)
# [2] = dose: 65.0 mg/kg/injection, schedule: Q01DX Z (sc), vehicle: methylcellulose (MC)
# [3] = dose: 108.0 mg/kg/injection, schedule: Q01DX Z (sc), vehicle: methylcellulose (MC)
# [4] = dose: 180.0 mg/kg/injection, schedule: Q01DX Z (sc), vehicle: methylcellulose (MC)
compound,measurement,setting,value
CS(=O)(=O)OCCCCOS(C)(=O)=O,T/C,"dose: 6.25 mg/kg/injection, schedule: Q01DX009 (ip), vehicle: Klucel (hydroxypropylcellulose) (HPC)",93 % of control
same,T/C,"dose: 6.25 mg/kg/injection, schedule: Q01DX009 (sc), vehicle: Klucel (hydroxypropylcellulose) (HPC)",97 % of control
same,T/C,"dose: 12.5 mg/kg/injection, schedule: Q01DX009 (ip), vehicle: Klucel (hydroxypropylcellulose) (HPC)",103 % of control
same,T/C,"dose: 12.5 mg/kg/injection, schedule: Q01DX009 (sc), vehicle: Klucel (hydroxypropylcellulose) (HPC)",96 % of control
same,T/C,[1],103 % of control
same,T/C,"dose: 25.0 mg/kg/injection, schedule: Q01DX009 (ip), vehicle: Klucel (hydroxypropylcellulose) (HPC)",106 % of control
same,T/C,"dose: 25.0 mg/kg/injection, schedule: Q01DX009 (sc), vehicle: Klucel (hydroxypropylcellulose) (HPC)",105 % of control
same,T/C,"dose: 47.0 mg/kg/injection, schedule: Q01DX Z (sc), vehicle: methylcellulose (MC)",105 % of control
same,T/C,"dose: 50.0 mg/kg/injection, schedule: Q01DX009 (ip), vehicle: Klucel (hydroxypropylcellulose) (HPC)",101 % of control
same,T/C,"dose: 50.0 mg/kg/injection, schedule: Q01DX009 (sc), vehicle: Klucel (hydroxypropylcellulose) (HPC)",96 % of control
same,T/C,[2],96 % of control
same,T/C,"dose: 78.0 mg/kg/injection, schedule: Q01DX Z (sc), vehicle: methylcellulose (MC)",110 % of control
same,T/C,[3],96 % of control
same,T/C,"dose: 130.0 mg/kg/injection, schedule: Q01DX Z (sc), vehicle: methylcellulose (MC)",100 % of control
same,T/C,[4],103 % of control
same,T/C,"dose: 300.0 mg/kg/injection, schedule: Q01DX Z (sc), vehicle: methylcellulose (MC)",100 % of control
CC(=O)NC1=C(N2CC2)C(=O)C(NC(C)=O)=C(N2CC2)C1=O,T/C,"dose: 1.08 mg/kg/injection, schedule: Q01DX Z (sc), vehicle: saline",213 % of control
same,T/C,"dose: 1.8 mg/kg/injection, schedule: Q01DX Z (sc), vehicle: saline",163 % of control
same,T/C,"dose: 5.0 mg/kg/injection, schedule: Q01DX Z (sc), vehicle: saline",118 % of control
same,T/C,"dose: 8.4 mg/kg/injection, schedule: Q01DX Z (sc), vehicle: saline",109 % of control
Oc1cc(CN(CCCl)CCCl)c(O)cc1CN(CCCl)CCCl,T/C,"dose: 3.0 mg/kg/injection, schedule: Q01DX Z (sc), vehicle: methylcellulose (MC)",100 % of control
same,T/C,"dose: 5.0 mg/kg/injection, schedule: Q01DX Z (sc), vehicle: methylcellulose (MC)",105 % of control
same,T/C,"dose: 8.4 mg/kg/injection, schedule: Q01DX Z (sc), vehicle: methylcellulose (MC)",110 % of control
same,T/C,"dose: 14.0 mg/kg/injection, schedule: Q01DX Z (sc), vehicle: methylcellulose (MC)",100 % of control
same,T/C,[1],105 % of control
same,T/C,"dose: 39.0 mg/kg/injection, schedule: Q01DX Z (sc), vehicle: methylcellulose (MC)",110 % of control
same,T/C,[2],110 % of control
same,T/C,[3],120 % of control
same,T/C,[4],120 % of control
Nc1ccn(C2OC(COP(=O)(O)O)C(O)C2O)c(=O)n1 (stereo unspecified),T/C,"dose: 3.5 mg/kg/injection, schedule: Q01DX Z (sc), vehicle: other",200 % of control
same,T/C,"dose: 5.8 mg/kg/injection, schedule: Q01DX Z (sc), vehicle: other",244 % of control
same,T/C,"dose: 9.7 mg/kg/injection, schedule: Q01DX Z (sc), vehicle: other",272 % of control
same,T/C,"dose: 16.2 mg/kg/injection, schedule: Q01DX Z (sc), vehicle: other",300 % of control
same,T/C,"dose: 27.0 mg/kg/injection, schedule: Q01DX Z (sc), vehicle: other",350 % of control
same,T/C,"dose: 45.1 mg/kg/injection, schedule: Q01DX Z (sc), vehicle: other",305 % of control
same,T/C,"dose: 75.1 mg/kg/injection, schedule: Q01DX Z (sc), vehicle: other",205 % of control
